Assay results: publication PMC6072516, “Rational design and synthesis of novel phenylsulfonyl-benzamides as anti-prostate cancer agents” (MedChemComm, 2017)
Read-outs that look alike come from different tables or passages of the source.

Assays:
[1] = tested on: HEK293 human embryonic kidney cells; assay: Cell Titer Blue viability (cytotoxicity) assay; type: cell-based
Procedure: (§1) A Cell Titer Blue viability assay was performed in the human embryonic kidney cell line HEK293, in order to evaluate the cytotoxicity profile of the newly prepared compounds. […] .
(§2) Fig. 5 HEK293 human embryonic kidney cells were treated at 70% confluence with negative controls (0.1% DMSO, BICAL at 10 μM), positive control (10% DMSO) and compounds at 10 μM concentration for 24 hours. […] Fluorescence was measured at 560/590 nm using a CLARIOstar luminescence plate reader (BMG Labtech). N = 4, n = 6 for controls, n = 3 for drugs. […]
(§3) for calculation of the geometric mean value. […]
(§4) of 0.05% Trypsin/EDTA. […] When all cells […]
(§5) chamber counting grid (Immune Systems). […]
(§6) confluence for assay the next day. […]
(§7) drugs at 10 µM concentration.
(§8) 100 µl media. […] Fluorescence was measured
(§9) USA). […] The Dunnett’s multiple […]
(§10) comparison test was used to compare each drug and the positive control to the negative control […]
(§11) Compound R1 X R2 Cell Viability Antiproliferative
(§12) Mean (%)* SEM** Abs. IC50
(§13) Table S2. Cell Viability assay at 10 µM. * Mean % of cell viability relative to control; ** Errors are calculated as standard error of the mean; ***Geometric mean.

[2] = tested on: four human prostate cancer cell lines: LNCaP, 22Rv1, VCaP, DU145; assay: Antiproliferative assay, overall effect in the four cell lines (geometric mean); type: cell-based; conditions: for IC50: geometric mean of the four cell lines, read-out: Absolute IC50 Geo. mean
Procedure: PCR based DNA-fingerprinting methodology.
density of 4.000 – 30.000 cells/well.
test compound were added.
concentrations in triplicate.
After an incubation period of
control/background ratio >3.0
The absolute IC50 value reflects the
The calculation was done by a 4
for calculation of the geometric mean value.
of 0.05% Trypsin/EDTA. […] When all cells

[3] = Cell Titer Blue viability (cytotoxicity) assay; type: cell-based, human; conditions: human
Procedure: as §1, §2, §3, §4, §5, §6, §7, §8, §9, §10, §11, §12, §13

VCaP = assay: 2D monolayer antiproliferative assay (propidium iodide), VCaP; conditions: Homo sapiens, 96 h, read-out: Absolute IC50 VCaP
Procedure: (§14) All new compounds along with the two standards were tested for their ability to inhibit survival and/or cell proliferation in four human prostate cancer cell lines: LNCaP, 22Rv1, VCaP, androgen-sensitive cell lines, and DU145, a non hormone-sensitive cell line.
(§15) Compound Handling: Stock solutions for all inhibitors were prepared in DMSO at a
(§16) were well soluble at this concentration in DMSO and precipitation was not observed for any
(§17) compound dissolved in 100% DMSO. Aliquots of the stock solution were thawed on the day
(§18) of use and stored at room temperature prior to and during treatment. The subsequent dilutions
(§19) were done with complete RPMI1640 cell culture medium. The DMSO stock solution was first
(§20) Starting with this solution, serial dilutions in
(§21) half-log steps with cell culture medium were done using an intermediate dilution plate. Finally,
(§22) 10 µl taken from the intermediate dilution plate were transferred to 140 µl / well of the cell
(§23) culture plate. Thus, at the highest test concentration the DMSO stock was diluted 1:330,
(§24) corresponding to a maximum DMSO concentration of 0.3 % v/v in the assay. Solubility of the
(§25) diluted compounds in the assay was monitored under the microscope by visual inspection of
(§26) the treated cell lines after the 4 days incubation. Precipitation as observed by crystalline
(§27) Tumor Cell lines: The cell line panel used for assessing the novel inhibitors comprised four
(§28) cell lines derived from human prostate cancers.
(§29) 6-7 Cell lines were routinely passaged once or twice weekly and maintained in culture for up to 20 passages. All cells were grown at 37°C in
(§30) glutamine, #FG1385, Biochrom, Berlin, Germany) supplemented with 10% (v/v) fetal calf serum (Sigma, Taufkirchen, Germany) and 0.1 mg/mL gentamicin (Life Technologies,
(§31) Cell Proliferation Assay: A modified propidium iodide (PI) based monolayer assay was used
(§32) exponential phase cultures, counted and plated in 96-well flat-bottom micro titer plates at a cell density of 4.000 – 30.000 cells/well. After a 24 h recovery period to allow the cells to resume exponential growth, 10 µl of culture medium (six control wells/plate) or culture medium with test compound were added. The compounds were applied in half-log increments at 10 concentrations in triplicate. After a total treatment period of 96 h, cells were washed with 200 µl PBS to remove dead cells and debris. Then, 200 µl of a solution containing 7 µg/ml propidium iodide (PI) and 0.1% (v/v) Triton X-100 was added. After an incubation period of 1-2 hours at room temperature, fluorescence (FU) was measured using the EnSpire Multimode Plate Reader (excitation λ= 530 nm, emission λ= 620 nm) to quantify the amount of attached
(§33) For calculation of mean IC50 values the geometric mean was used.
(§34) Data Evaluation: An assay was considered fully evaluable if the following quality control
(§35) - Z’-factor calculated within the assay plate ≥0.59
(§36) - fluorescence intensity of >500 U from the untreated control wells, equivalent to a
(§37) - coefficient of variation in the growth control wells ≤30
(§38) Compound effects were expressed in terms of the percentage of the fluorescence signal, obtained by comparison of the mean signal in the treated wells with the mean signal of the untreated controls (expressed by the test-versus-control value, T/C-value [%]):

22Rv1 = assay: 2D monolayer antiproliferative assay (propidium iodide), 22Rv1; conditions: Homo sapiens, 22Rv1, 96 h, read-out: Absolute IC50 22Rv1
Procedure: as §14, §15, §16, §17, §18, §19, §20, §21, §22, §23, §24, §25, §26, §27, §28, §29, §30, §31, §32, §33, §34, §35, §36, §37, §38

LNCaP = assay: 2D monolayer antiproliferative assay (propidium iodide), LNCaP; conditions: for IC50: Homo sapiens, LNCaP, 96 h, read-out: Absolute IC50 LNCaP
Procedure: as §14, §15, §16, §17, §18, §19, §20, §21, §22, §23, §24, §25, §26, §27, §28, §29, §30, §31, §32, §33, §34, §35, §36, §37, §38

DU-145 = assay: 2D monolayer antiproliferative assay (propidium iodide), DU-145; conditions: Homo sapiens, DU-145, 96 h, read-out: Absolute IC50 DU-145
Procedure: as §14, §15, §16, §17, §18, §19, §20, §21, §22, §23, §24, §25, §26, §27, §28, §29, §30, §31, §32, §33, §34, §35, §36, §37, §38

[4] = 10 µM, 24 h, HEK293, mean % of cell viability relative to control, read-out: Cell Viability Mean (%)

## C[S+](C)[O-] [10% DMSO]
[1]; 10 µM
  Cell Viability Mean (%): 1.45%

## C[C@](O)(CS(=O)(=O)c1ccc(F)cc1)C(=O)Nc1ccc(C#N)c(C(F)(F)F)c1 [Bicalutamide, bicalutamide, reference compound]
[2]; Homo sapiens
  IC50: 50 µM
[2]
  IC50: 52.4 µM
[3]; HEK293 cells, 10 µM, 24 h, HEK293, mean % of cell viability relative to control, read-out: Cell Viability Mean (%)
  viability at 24 h, 10 µM: 94.6%

## N#Cc1ccc(NC(=O)c2ccc(Sc3ccc(O)cc3)cc2)cc1C(F)(F)F [Compound 11a]
[2]; Homo sapiens
  IC50: 7.08 µM
[3]; [4]
  viability at 24 h, 10 µM: 65.7%
VCaP
  IC50: 9.55 µM
22Rv1
  IC50: 6.24 µM
LNCaP
  IC50: 5.43 µM
DU-145
  IC50: 7.77 µM

## O=C(Nc1ccc([N+](=O)[O-])c(C(F)(F)F)c1)c1ccc(Sc2ccc(O)cc2)cc1 [Compound 11b]
[2]; Homo sapiens
  IC50: 4.68 µM
[3]
  viability at 24 h, 10 µM: 65.4%
VCaP
  IC50: 5.19 µM
22Rv1
  IC50: 4.5 µM
LNCaP
  IC50: 3.58 µM
DU-145
  IC50: 5.74 µM

## O=C(Nc1cc(C(F)(F)F)cc(C(F)(F)F)c1)c1ccc(Sc2ccc(O)cc2)cc1 [Compound 11c]
[2]; Homo sapiens
  IC50: 3.28 µM
[3]
  viability at 24 h, 10 µM: 64.2%
VCaP
  IC50: 2.59 µM
22Rv1
  IC50: 3.35 µM
LNCaP
  IC50: 2.39 µM
DU-145
  IC50: 5.6 µM

## O=C(Nc1cc(C(F)(F)F)ccc1C(F)(F)F)c1ccc(Sc2ccc(O)cc2)cc1 [Compound 11d]
[2]; Homo sapiens
  IC50: 12.1 µM
[3]
  viability at 24 h, 10 µM: 53.7%
VCaP
  IC50: 10.9 µM
22Rv1
  IC50: 10.3 µM
LNCaP
  IC50: 11.4 µM
DU-145
  IC50: 16.6 µM

## O=C(Nc1ccc(S(F)(F)(F)(F)F)cc1)c1ccc(Sc2ccc(O)cc2)cc1 [Compound 11e]
[2]; Homo sapiens
  IC50: 5.43 µM
[3]
  viability at 24 h, 10 µM: 49.5%
VCaP
  IC50: 7.15 µM
22Rv1
  IC50: 3.71 µM
LNCaP
  IC50: 4.86 µM
DU-145
  IC50: 6.76 µM

## O=C(Nc1cccc(S(F)(F)(F)(F)F)c1)c1ccc(Sc2ccc(O)cc2)cc1 [Compound 11f]
[2]; Homo sapiens
  IC50: 4.01 µM
[3]
  viability at 24 h, 10 µM: 60.5%
VCaP
  IC50: 6.1 µM
22Rv1
  IC50: 2.94 µM
LNCaP
  IC50: 3.32 µM
DU-145
  IC50: 4.35 µM

## O=C(Nc1ccc(C(F)(F)F)cc1)c1ccc(Sc2ccc(O)cc2)cc1 [Compound 11g]
[2]; Homo sapiens
  IC50: 8.09 µM
[3]
  viability at 24 h, 10 µM: 66.3%
VCaP
  IC50: 9.68 µM
22Rv1
  IC50: 6.23 µM
LNCaP
  IC50: 8.3 µM
DU-145
  IC50: 8.55 µM

## O=C(Nc1cccc(C(F)(F)F)c1)c1ccc(Sc2ccc(O)cc2)cc1 [Compound 11h]
[3]
  viability at 24 h, 10 µM: 85.6%
VCaP
  IC50: 10.6 µM
22Rv1
  IC50: 5.73 µM
LNCaP
  IC50: 9.66 µM
DU-145
  IC50: 5.95 µM

## O=C(Nc1ccccc1C(F)(F)F)c1ccc(Sc2ccc(O)cc2)cc1 [Compound 11i]
[2]; 11h vs 11i
  reduction of overall effect in the four cell lines, ortho vs meta CF3: 3 fold
[2]; Homo sapiens
  IC50: 25.2 µM
[3]
  viability at 24 h, 10 µM: 111%
VCaP
  IC50: 32.3 µM
22Rv1
  IC50: 30.9 µM
LNCaP
  IC50: 11.4 µM
DU-145
  IC50: 35.7 µM

## N#Cc1ccc(NC(=O)c2ccc(Sc3cccc(C(F)(F)F)c3)cc2)cc1C(F)(F)F [Compound 12a]
[2]; Homo sapiens
  IC50: 5.5 µM
[3]; [4]
  viability at 24 h, 10 µM: 60%
VCaP
  IC50: 5.66 µM
22Rv1
  IC50: 3.57 µM
LNCaP
  IC50: 8.87 µM
DU-145
  IC50: 5.12 µM

## O=C(Nc1cccc(C(F)(F)F)c1)c1ccc(Sc2cccc(C(F)(F)F)c2)cc1 [Compound 12h]
[2]; Homo sapiens
  IC50: < 16 µM
[2]
  IC50: 12.5 µM
[3]
  viability at 24 h, 10 µM: 112%
VCaP
  IC50: 28.2 µM
22Rv1
  IC50: 6.96 µM
LNCaP
  IC50: 12.5 µM
DU-145
  IC50: 9.89 µM

## N#Cc1ccc(NC(=O)c2ccc(S(=O)(=O)c3ccc(O)cc3)cc2)cc1C(F)(F)F [Compound 13a]
[2]; Homo sapiens
  IC50: 8.84 µM
[3]; [4]
  viability at 24 h, 10 µM: 73%
VCaP
  IC50: 8.56 µM
22Rv1
  IC50: 12.1 µM
LNCaP
  IC50: 4.68 µM
DU-145
  IC50: 12.6 µM

## O=C(Nc1ccc([N+](=O)[O-])c(C(F)(F)F)c1)c1ccc(S(=O)(=O)c2ccc(O)cc2)cc1 [Compound 13b]
[3]
  viability at 24 h, 10 µM: 82.3%
VCaP
  IC50: 8.57 µM
22Rv1
  IC50: 7.3 µM
LNCaP
  IC50: 4.96 µM
DU-145
  IC50: 8.85 µM

## O=C(Nc1cc(C(F)(F)F)cc(C(F)(F)F)c1)c1ccc(S(=O)(=O)c2ccc(O)cc2)cc1 [Compound 13c]
[2]; 11c vs 13c
  increase of IC50 values, sulfone vs thioether: up to 2 fold
[2]; Homo sapiens
  IC50: 8.5 µM
[3]
  viability at 24 h, 10 µM: 65.7%
VCaP
  IC50: 9.72 µM
22Rv1
  IC50: 6.44 µM
LNCaP
  IC50: 8.41 µM
DU-145
  IC50: 9.92 µM

## O=C(Nc1cc(C(F)(F)F)ccc1C(F)(F)F)c1ccc(S(=O)(=O)c2ccc(O)cc2)cc1 [Compound 13d]
[2]; Homo sapiens
  IC50: 25.2 µM
VCaP
  IC50: 30.5 µM
22Rv1
  IC50: 20.7 µM
LNCaP
  IC50: 23.2 µM
DU-145
  IC50: 27.8 µM

## O=C(Nc1ccc(S(F)(F)(F)(F)F)cc1)c1ccc(S(=O)(=O)c2ccc(O)cc2)cc1 [Compound 13e, 4-((4-Hydroxyphenyl)sulfonyl)-N-(4-(pentafluorothio)phenyl)benzamide]
[2]; Homo sapiens
  IC50: 5.37 µM
[3]
  viability at 24 h, 10 µM: 38.4%
[1]; human, 24 h, 10 μM
  reduction of cell viability / cells killed: more than 50%
VCaP
  IC50: 5.35 µM
22Rv1
  IC50: 5.78 µM
LNCaP
  IC50: 2.49 µM
DU-145
  IC50: 10.8 µM

## O=C(Nc1cccc(S(F)(F)(F)(F)F)c1)c1ccc(S(=O)(=O)c2ccc(O)cc2)cc1 [Compound 13f, N-(3-(Pentafluorosulfanyl)phenyl)-4-((4-hydroxyphenyl)sulfonyl)benzamide]
[2]; Homo sapiens
  IC50: 6.18 µM
[3]
  viability at 24 h, 10 µM: 76.2%
VCaP
  IC50: 10.8 µM
22Rv1
  IC50: 5.66 µM
LNCaP
  IC50: 3.98 µM
DU-145
  IC50: 6.01 µM

## O=C(Nc1ccc(C(F)(F)F)cc1)c1ccc(S(=O)(=O)c2ccc(O)cc2)cc1 [Compound 13g]
[2]; Homo sapiens
  IC50: 19.7 µM
[3]
  viability at 24 h, 10 µM: 61.8%
VCaP
  IC50: 27.2 µM
22Rv1
  IC50: 16.8 µM
LNCaP
  IC50: 10.8 µM
DU-145
  IC50: 30.7 µM

## O=C(Nc1cccc(C(F)(F)F)c1)c1ccc(S(=O)(=O)c2ccc(O)cc2)cc1 [Compound 13h]
[2]; Homo sapiens
  IC50: < 16 µM
[2]
  IC50: 16.8 µM
[3]
  viability at 24 h, 10 µM: 87.6%
VCaP
  IC50: 30.1 µM
22Rv1
  IC50: 15.1 µM
LNCaP
  IC50: 10.2 µM
DU-145
  IC50: 17.7 µM

## O=C(Nc1ccccc1C(F)(F)F)c1ccc(S(=O)(=O)c2ccc(O)cc2)cc1 [Compound 13i]
[2]; Homo sapiens
  IC50: 49.1 µM
[3]
  viability at 24 h, 10 µM: 129%
VCaP
  IC50: 65.2 µM
22Rv1
  IC50: 49.3 µM
LNCaP
  IC50: 39.3 µM
DU-145
  IC50: 45.9 µM

## O=C(Nc1ccc(S(F)(F)(F)(F)F)cc1)c1ccc([S+]([O-])c2ccc(O)cc2)cc1 (stereo not shown) [Compound 14e, 4-((4-Hydroxyphenyl)sulfinyl)-N-(4-(pentafluorothio)phenyl)benzamide]
[2]; Homo sapiens
  IC50: 3.75 µM
[3]
  viability at 24 h, 10 µM: 59.7%
VCaP
  IC50: 3.53 µM
22Rv1
  IC50: 5.6 µM
LNCaP; 96 h treatment, mean of triplicate, SD ±10%
  Absolute IC50 LNCaP: sub μM
LNCaP
  IC50: 0.9 µM
DU-145
  IC50: 11 µM

## O=C(Nc1ccccc1C(F)(F)F)c1ccc([S+]([O-])c2ccc(O)cc2)cc1 (stereo not shown) [Compound 14i]
[3]
  viability at 24 h, 10 µM: 104%
VCaP
  IC50: 97.6 µM
22Rv1
  IC50: > 100 µM
LNCaP
  IC50: 62 µM
DU-145
  IC50: > 100 µM

## N#Cc1ccc(NC(=O)c2ccc(S(=O)(=O)c3cccc(C(F)(F)F)c3)cc2)cc1C(F)(F)F [Compound 15a]
[2]; Homo sapiens
  IC50: 4.71 µM
[3]; [4]
  viability at 24 h, 10 µM: 79%
VCaP
  IC50: 7.87 µM
22Rv1
  IC50: 3.57 µM
LNCaP
  IC50: 3.73 µM
DU-145
  IC50: 4.7 µM

## O=C(Nc1cccc(C(F)(F)F)c1)c1ccc(S(=O)(=O)c2cccc(C(F)(F)F)c2)cc1 [Compound 15h]
[3]
  viability at 24 h, 10 µM: 83.9%
